US20080221218A1, “Receptor” (The University of York, priority 2005, published 2008)

How the values were obtained:
[1] = literature (Bertsch et al.); cited from earlier work
[2] = Potentiometric titrations: protonation constants; assay type: physicochemical; conditions: potentiometry, 0.1 M KCl, 25° C.; for Protonation constant (log K) 2H+ + L ⇄ H2L2+ / Protonation constant (log K) 3H+ + L ⇄ H3L3+ / Protonation constant (log K) 4H+ + L ⇄ H4L4+: cumulative; for Protonation constant (log K) H+ + H2L2+ ⇄ H3L3+ / Protonation constant (log K) H+ + H3L3+ ⇄ H4L4+ / Protonation constant (log K) H+ + HL+ ⇄ H2L2+: stepwise
Experimental: (§1) Potentiometric measurements were conducted using a Metrohm 792SM Titrino automated burette fitted with a combined glass electrode and an in-house designed jacketed glass cell thermostated at 25° C. suitable for small sample volumes (5 mL). The cell was sealed under an inert atmosphere. All solutions were made up using ultrapure CO2-free water from a Millipore Simplicity 185 system. The sample solutions contained 0.1 M KCl as a background electrolyte. The titrant base was made up from commercial (Riedel-de Haën) CO2-free concentrates of KOH, diluted to the required concentration (0.020 M) with a 0.080 M KCl solution to avoid problems of different ionic strengths. The glass electrode was calibrated by titrating well-known amounts of HCl (made up from Riedel-de Haën concentrates) with the base and determining the equivalence point using Gran's method (G. Gran, Analyst, 1952, 77, 661-671) yielding the ionic product of water (pKw=13.78), which was used as a constant in the subsequent analyses.
(§2) Sample concentrations were typically 1.0-5.0×10^−3 M. A known excess of HCl was added to ensure full protonation of the receptor. The degree of protonation of our receptors was calculated from the onset of titration curve. […] A minimum of 250 points in the pH-range of 2.5-11.0 was taken for every titration, with at least 30 seconds between each addition to ensure equilibration. The computer program […]^I was used to determine the protonation and stability constants. For each system a minimum of three titrations were first treated as individual sets and then merged and fitted simultaneously to give the final constants.
To study the binding in more detail we used potentiometry. To enable this, we first investigated the protonation constants of the receptors and the data is collected in Table 1. We calibrated our system with spermine (compound 4) and the data for this compound are also included in this table and were in accordance with literature values (Bazzicalupi et al, J. Am. Chem. Soc. 121: 6807-6815 (1999); De Stefano et al., J. Chem. Soc. Faraday Trans, 94:1091-1095 (1998); Bergeron et al., J. Med. Chem. 38:2278-2285 (1995)).

[3] = Fluorimetric titrations: quenching of fluorescent phosphate derivative 13; conditions: 1:1 binding model; 0.1 M TRIS buffer pH 7.0; 13 at 5.0×10^−6 M
Experimental: Titrations were performed on a Spex Fluoromax-II instrument at 25° C. in a 0.1 M TRIS buffer of pH 7.0, using an excitation wavelength of 324 nm.
Upon titration of our receptors to a solution of this probe in buffered water (0.1 M Tris, pH 7.0) the emission of compound 13 was quenched indicating binding (FIG. 3).
This is related to the trans configuration of the oligoamines around the conformationally restricted scaffold in compound 1 preventing the oligoamines from cooperating.

[4] = Potentiometric titrations: binding of inorganic phosphate (equimolar KH2PO4 and receptor); conditions: for Binding constant (Log K) H3L3+ + HA2− ⇄ H4LA+ / Binding constant (Log K) H4L4+ + HA2− ⇄ H5LA2+ / Protonation and binding constant (Log K) 4H+ + L + A3− ⇄ H4LA+ / Protonation and binding constant (Log K) 5H+ + L + A3− ⇄ H5LA2+ / Binding constant (Log K) H2L2+ + HA2− ⇄ H3LA / Binding constant (Log K) H4L4+ + H2A− ⇄ H6LA3+ / Protonation and binding constant (Log K) 3H+ + L + A3− ⇄ H3LA / Protonation and binding constant (Log K) 6H+ + L + A3− ⇄ H6LA3+: A = phosphate, 0.1 M KCl, 25° C.; for Binding constant (Log K) H3L3+ + HA2− ⇄ H4LA+ / Binding constant (Log K) H4L4+ + HA2− ⇄ H5LA2+ / Protonation and binding constant (Log K) 4H+ + L + A3− ⇄ H4LA+ / Protonation and binding constant (Log K) 5H+ + L + A3− ⇄ H5LA2+ / affinity towards inorganic phosphate (log K), range over protonation states / Binding constant (Log K) H2L2+ + HA2− ⇄ H3LA / Binding constant (Log K) H4L4+ + H2A− ⇄ H6LA3+ / Protonation and binding constant (Log K) 3H+ + L + A3− ⇄ H3LA / Protonation and binding constant (Log K) 6H+ + L + A3− ⇄ H6LA3+: potentiometry; for Protonation and binding constant (Log K) 4H+ + L + A3− ⇄ H4LA+ / Protonation and binding constant (Log K) 5H+ + L + A3− ⇄ H5LA2+ / Protonation and binding constant (Log K) 3H+ + L + A3− ⇄ H3LA / Protonation and binding constant (Log K) 6H+ + L + A3− ⇄ H6LA3+: overall constant; for phosphate in solution bound by receptor: pH 7.0, from speciation diagrams of potentiometric data (FIG. 4); for affinity towards inorganic phosphate (log K), range over protonation states: summary of Table 2; for Binding constant (Log K) H2L2+ + HA2− ⇄ H3LA / Binding constant (Log K) H4L4+ + H2A− ⇄ H6LA3+ / Protonation and binding constant (Log K) 3H+ + L + A3− ⇄ H3LA / Protonation and binding constant (Log K) 6H+ + L + A3− ⇄ H6LA3+: dash = equilibrium does not occur significantly
Experimental: as §1, §2

Protonation constant (log K) 2H+ + L ⇄ H2L2+ [2] | Protonation constant (log K) 3H+ + L ⇄ H3L3+ [2] | Protonation constant (log K) 4H+ + L ⇄ H4L4+ [2] | Protonation constant (log K) H+ + L ⇄ HL+ [2] | Protonation constant (log K) H+ + H2L2+ ⇄ H3L3+ [2] | Protonation constant (log K) H+ + H3L3+ ⇄ H4L4+ [2] | Protonation constant (log K) H+ + HL+ ⇄ H2L2+ [2] | binding constant (log K) for fluorescent phosphate derivative 13 [3] | Binding constant (Log K) H3L3+ + HA2− ⇄ H4LA+ [4] | Binding constant (Log K) H4L4+ + HA2− ⇄ H5LA2+ [4] | Protonation and binding constant (Log K) 4H+ + L + A3− ⇄ H4LA+ [4] | Protonation and binding constant (Log K) 5H+ + L + A3− ⇄ H5LA2+ [4] | phosphate in solution bound by receptor [4] | affinity towards inorganic phosphate (log K), range over protonation states [4] | Binding constant (Log K) H2L2+ + HA2− ⇄ H3LA [4] | Binding constant (Log K) H4L4+ + H2A− ⇄ H6LA3+ [4] | Protonation and binding constant (Log K) 3H+ + L + A3− ⇄ H3LA [4] | Protonation and binding constant (Log K) 6H+ + L + A3− ⇄ H6LA3+ [4] | Structure (SMILES) | first protonation pKa [1] | second protonation pKa [1]
 |  |  |  |  |  |  |  |  |  |  |  |  |  |  |  |  |  | NCCN [1,2-diaminoethane] | 10.1 | 7.0
 |  |  |  |  |  |  |  |  |  |  |  |  |  |  |  |  |  | NCCCN [1,3-diaminopropane] | 10.6 | 8.6
 |  |  |  |  |  |  |  |  |  |  |  |  |  |  |  |  |  | NCCCCN [1,4-diaminobutane] |  | 9.4
20.05 | 28.42 | 35.50 | 10.45 | 8.37 | 7.08 | 9.60 | no significant binding occurs | 2.90 | 3.39 | 42.87 | 50.44 | 31% | 2.9-3.4 |  |  |  |  | CN(CCCN)CCCNC(=O)/C=C/C(=O)NCCCN(C)CCCN [Compound 1] |  | 
19.06 | 26.52 | 30.27 | 10.04 | 7.46 | 3.75 | 9.02 | 5.15 | 5.27 | 8.55 | 43.27 (7) | 50.30 (7) | 95% | 4.4-8.6 | 4.40 | 7.67 | 34.94 (4) | 56.33 (9) | CN(CCCN)CCCNC(=O)/C=C\C(=O)NCCCN(C)CCCN [Compound 2] |  | 
18.82 | 25.14 | 28.11 | 10.32 | 6.32 | 2.97 | 8.50 | 5.30 | 10.24 |  | 46.85 (4) | 53.76 (5) |  |  | 7.53 | 10.90 | 37.83 (4) | 57.40 (5) | CN1CCCNCc2cccc(c2)CNCCCN(C)CCCNC(=O)/C=C\C(=O)NCCC1 [Compound 3] |  | 
20.63 | 29.50 | 37.58 | 10.64 | 8.87 | 8.08 | 9.99 |  |  |  |  |  |  |  |  |  |  |  | NCCCNCCCCNCCCN [Compound 4, spermine, reference compound] |  | 
18.49 | 25.67 | 27.91 | 9.76 | 7.18 | 2.24 | 8.73 |  | 5.52 | 10.70 | 42.67 (3) | 50.09 (3) | 95% |  | 4.37 | 10.17 | 34.34 (3) | 56.47 (3) | CN(CCCN)CCCNC(=O)[C@@H]1C2C=CC(C2)[C@H]1C(=O)NCCCN(C)CCCN [Compound 14] |  | 
